Source: US10273240B2, “Cortistatin analogues, syntheses, and uses thereof” (President and Fellows of Harvard College, priority 2015, dated 2019)
Where two headings read alike, the source gives them in different places.

Legend:
[1] = target: T1, ROCK2 in MOLM-14 cell lysate (Homo sapiens, UniProt O75116); assay: Native kinase capture immunoblot, ROCK2; assay type: binding
T1 construct: endogenous in cells; host or cells: MOLM-14 cell lysate
Procedure: Native Kinase Capture Immunoblot and Native Kinome-Wide Profiling. […] Experiment was performed twice with one immunoblot shown.

K562 = assay: Cell growth assay, K562; assay type: cell-based; settings: Homo sapiens
Procedure: All media was supplemented with 100 U/mL penicillin and 100 μg/mL streptomycin. Human cancer cell lines were grown in the following media: MV4; 11, K562, MOLM-14 in RPMI-1640, 10% FBS; SKNO-1 in RPMI-1640, 10% FBS, and 10 ng/mL GM-CSF; MV4;11 and K562 were from ATCC. SKNO-1 was from DSMZ.
(§1) Cell Culture. All media was supplemented with 100 U/mL penicillin and 100 μg/mL streptomycin. Human cancer cell lines were grown in the following media: MV4; 11, RS4; 11, K562, HEL, MOLM-14, MEG-01 in RPMI-1640, 10% FBS; SET-2 in RPMI-1640, 20% FBS; UKE-1 in RPMI-1640, 10% FBS, 10% horse serum and 1 μM hydrocortisone; SKNO-1 and TF-1 in RPMI-1640, 10% FBS, and 10 or 2 ng/mL GM-CSF, respectively; HaCaT in DMEM, 10% FBS; and HCT116 in McCoy's 5 A, 10% FBS (proliferation assay) or DMEM, 10% FBS (gene expression study). HepG2, MV4;11, RS4;11, MEG-01, TF-1, HCT116 and K562 were from ATCC. SKNO-1 was from DSMZ. HEL, UKE-1, and SET-2 were provided by Ross L. Levine and HaCaT, MV4;11-mCLP, and MOLM-14 by Van Wilson, Andrew L. Kung, and Scott A. Armstrong, respectively. MOLM-14 cells were authenticated by STR profiling and flow cytometry and all cell lines were routinely tested and found to be negative for mycoplasma.

TF-1 = assay: Cell growth assay, TF-1; assay type: cell-based; settings: Homo sapiens, TF-1, 240 h; CA, after 10 days; read-out: Mean GI50 (nM), TF-1
Procedure: as §1

CDK8 module = target: T2, CDK8 module (Homo sapiens, UniProt P49336); assay: In vitro kinase assay, CDK8 module; assay type: biochemical
T2 construct: made in house

CDK7 (TFIIH) = target: T3, CDK7 (TFIIH) (Homo sapiens, UniProt P50613); assay: In vitro kinase assay, CDK7 (TFIIH); assay type: biochemical
T3 construct: TFIIH was captured from HeLa nuclear extract; endogenous in cells; host or cells: HeLa nuclear extract
Procedure: (§2) Kinase Assays. Data was quantified with ImageJ and plotted and fitted with GraphPad Prism 6.0. For STAT1 transactivation domain (TAD), 750 ng of GST-STAT1 TAD (residues 639-750) was incubated with ˜50 ng recombinant CDK8 module at 30° C. for 8 min in kinase buffer (25 mM Tris pH 8, 2 mM DTT, 100 μM cold ATP, 100 mM KCl, 10 mM MgCl2 and 2.5 μCi [γ-^32P] ATP (Perkin Elmer) per reaction). […] 12% SDS-PAGE gels were subsequently silver stained, exposed for 18 h on a Phosphor Screen and imaged (Typhoon 9400, GE Life Sciences). For pol II CTD, 400 ng of GST-CTD (murine sequence) was incubated with ˜40 ng recombinant CDK8 module, 25 ng TFIIH, or 40 ng P-TEFb at 30° C. for 60 min in kinase buffer. Kinase amounts were chosen to give similar total pol II CTD signal. 9% SDS-PAGE gels were silver stained and exposed as above. In vitro FLAG-CDK8 kinase assays used ˜40 ng kinase and 500 ng GST-CTD. For STAT1 or Smad2/3, cells were treated with compound for 1 h followed by IFN-γ or TGF-β1 for 1 h, then washed twice with cold PBS, and lysed (RIPA buffer with inhibitors R0278, P8340, P0044, P5762 Sigma-Aldrich). Standard immunoblotting was then performed with one immunoblot shown. All experiments were performed twice.
(§3) Protein Purification. Buffers for purification and elution of recombinant proteins included 0.25 mM PMSF, 1 mM DTT, 1 mM benzamidine, and 1 mM sodium metabisulfite. […]

CDK9 (P-TEFb) = target: T4, CDK9 (P-TEFb) (Homo sapiens, UniProt P50750); assay: In vitro kinase assay, CDK9 (P-TEFb); assay type: biochemical
T4 construct: made in house
Procedure: as §2, §3

T4 sequence (P50750 1-345 limits assumed): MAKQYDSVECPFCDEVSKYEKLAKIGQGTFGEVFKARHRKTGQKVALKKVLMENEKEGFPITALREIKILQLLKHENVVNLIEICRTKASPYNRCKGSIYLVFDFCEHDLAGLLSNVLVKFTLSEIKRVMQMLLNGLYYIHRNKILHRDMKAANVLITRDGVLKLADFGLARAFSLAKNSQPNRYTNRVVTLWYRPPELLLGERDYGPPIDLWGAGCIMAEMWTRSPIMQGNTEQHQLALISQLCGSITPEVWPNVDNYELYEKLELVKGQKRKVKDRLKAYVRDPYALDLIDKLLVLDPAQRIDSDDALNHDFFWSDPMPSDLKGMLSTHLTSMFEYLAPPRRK
T4 sequence (O60563 1-266 partner limits assumed): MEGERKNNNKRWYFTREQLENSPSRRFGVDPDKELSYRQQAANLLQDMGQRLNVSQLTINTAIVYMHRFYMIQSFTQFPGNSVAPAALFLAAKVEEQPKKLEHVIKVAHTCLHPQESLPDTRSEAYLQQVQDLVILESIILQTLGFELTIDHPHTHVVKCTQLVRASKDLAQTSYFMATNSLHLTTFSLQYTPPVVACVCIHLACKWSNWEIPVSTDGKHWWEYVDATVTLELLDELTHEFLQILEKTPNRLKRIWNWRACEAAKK
T1 sequence (O75116 whole entry): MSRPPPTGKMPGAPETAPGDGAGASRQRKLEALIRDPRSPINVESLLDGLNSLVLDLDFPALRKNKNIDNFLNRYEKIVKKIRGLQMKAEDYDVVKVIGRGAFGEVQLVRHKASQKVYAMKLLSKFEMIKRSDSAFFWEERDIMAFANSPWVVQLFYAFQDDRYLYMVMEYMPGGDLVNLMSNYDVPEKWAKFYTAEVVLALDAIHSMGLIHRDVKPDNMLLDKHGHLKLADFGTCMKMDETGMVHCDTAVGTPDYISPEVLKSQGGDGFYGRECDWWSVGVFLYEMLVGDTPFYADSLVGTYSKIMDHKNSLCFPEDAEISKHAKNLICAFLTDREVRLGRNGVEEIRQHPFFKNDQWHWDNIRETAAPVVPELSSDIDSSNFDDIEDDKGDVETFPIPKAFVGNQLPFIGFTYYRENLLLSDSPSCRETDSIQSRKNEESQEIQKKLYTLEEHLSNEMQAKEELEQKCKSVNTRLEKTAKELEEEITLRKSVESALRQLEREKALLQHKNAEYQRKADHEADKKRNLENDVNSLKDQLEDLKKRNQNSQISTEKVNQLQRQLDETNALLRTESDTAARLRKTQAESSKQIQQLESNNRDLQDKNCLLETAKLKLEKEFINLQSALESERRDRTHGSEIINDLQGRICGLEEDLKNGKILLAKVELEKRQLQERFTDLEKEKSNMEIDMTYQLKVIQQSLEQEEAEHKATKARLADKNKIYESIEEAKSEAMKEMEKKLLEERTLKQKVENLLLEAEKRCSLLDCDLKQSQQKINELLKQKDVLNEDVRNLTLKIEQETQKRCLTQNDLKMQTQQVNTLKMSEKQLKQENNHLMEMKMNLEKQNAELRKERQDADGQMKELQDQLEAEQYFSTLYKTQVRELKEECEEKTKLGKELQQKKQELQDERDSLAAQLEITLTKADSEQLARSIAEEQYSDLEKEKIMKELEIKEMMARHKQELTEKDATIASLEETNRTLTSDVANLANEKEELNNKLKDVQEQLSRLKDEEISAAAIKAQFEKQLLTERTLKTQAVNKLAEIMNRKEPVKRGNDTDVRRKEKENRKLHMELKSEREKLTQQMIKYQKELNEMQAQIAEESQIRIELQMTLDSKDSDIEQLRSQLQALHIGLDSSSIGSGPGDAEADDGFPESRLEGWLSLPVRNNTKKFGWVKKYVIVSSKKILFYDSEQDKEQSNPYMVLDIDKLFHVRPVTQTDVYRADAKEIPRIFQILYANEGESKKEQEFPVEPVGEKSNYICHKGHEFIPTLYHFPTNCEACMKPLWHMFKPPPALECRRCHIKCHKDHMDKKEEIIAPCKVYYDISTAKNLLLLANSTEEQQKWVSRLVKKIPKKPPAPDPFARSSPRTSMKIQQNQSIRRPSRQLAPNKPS

## CN(C)[C@H]1C[C@@]23CC[C@@]4(O2)C(=CC[C@@]2(C)[C@@H](c5ccc6ccncc6c5)CC[C@H]24)C=C3[C@@H](O)[C@@H]1O [CA, cortistatin A]
[1]
  binding of ROCK2 (no binding up to): > 2500 nM
K562; K562, 240 h, CA, after 10 days, read-out: Mean GI50 (nM), K562
  GI50: > 1000 nM
K562; K562, 240 h, read-out: K562 GI50 day 10
  GI50: > 1000 nM
K562; K562, Table 5, read-out: GI50 (nM), K562
  GI50: > 1000 nM
TF-1
  GI50: 350 nM
CDK8 module
  inhibition of kinase activity of the CDK8 module: potently inhibited
CDK7 (TFIIH)
  inhibition of CDK7 (TFIIH): did not inhibit
CDK9 (P-TEFb)
  inhibition of CDK9 (P-TEFb): did not inhibit
